System: Male WKY rats
Test: Low-dose sleep, locomotor, body temperature and qEEG study in WKY rats
Type: in vivo, rat
Settings: 1, 3 and 10 mg/kg IP
Method: The aim of the current study was to identify a minimal effective dose of compound by testing a series of lower doses (1, 3 and 10 mg/kg). The study was carried out similarly to Examples 7 and 9 with differences noted below. Male WKY rats (n=8, 255-296 g at the start of dosing) were housed in groups of 2-3 animals per cage with standard housing conditions.

COc1ccc(OC)c(CCNCc2cc(C)cc(F)c2)c1 [Compound 2-2, 2-(2,5-dimethoxyphenyl)-N-(3-fluoro-5-methylbenzyl)ethan-1-amine]
body temperature: did not affect
locomotion: did not affect
